For orientation: IC50 means the concentration at which inhibition is half-maximal. Read a low IC50 as inhibition by little substance. For orientation: Ki means a measure of affinity in units of concentration, obtained from inhibition or displacement. A lower Ki goes with higher affinity.

The target in the test is T1, Induced myeloid leukemia cell differentiation protein Mcl-1 [171-327] (Homo sapiens, UniProt Q07820).
T1 construct: 171-327
T1 sequence (Q07820 171-327): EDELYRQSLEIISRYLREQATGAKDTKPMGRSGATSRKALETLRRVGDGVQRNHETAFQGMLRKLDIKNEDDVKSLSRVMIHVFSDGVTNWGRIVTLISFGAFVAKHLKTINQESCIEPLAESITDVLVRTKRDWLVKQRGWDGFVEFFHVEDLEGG
Put plainly: TR-FRET Binding A. Particulars: pH 7.4; 24 °C. How it is done:
Compound IC50 values were assessed following a 10-point, half-log10 dilution schema starting at 10 uM compound concentration. The assay was performed in 384-well LV plates (Matrix 4365, Thermo Scientific) and run in the presence and absence of the compound of interest. Each well of 12 uL assay mixture contained 10 mM Tris (pH 7.4), 1 mM DTT, 0.005% Tween-20, 150 mM NaCl, 10% DMSO, 3 nM GST-Mcl-1, 1 nM LanthaScreen Eu-tagged GST antibody (#PV5594, Invitrogen, Life Technologies), and 8 nM fluorescently labeled peptide. Reactions were incubated at 24 °C for 60 min before reading on a Tecan F500 spectrofluorometer with excitation at 340 nm and emission at 620 nm and 665 nm. Subsequently, the ratio of fluorescence emission intensity at 665 nm to 620 nm was calculated for each reaction, and the dose response of the ratio to testing compound concentration was fitted to a select fit model that will provide the best fit quality using automatic parameters to derive IC50 values for each testing compound.
For orientation: TR-FRET usually uses a lanthanide donor and a delayed reading to cut background.
Consider `CC(=O)c1cc(OCc2nn(C)c(C)c2-c2cccc3c(CCCOc4cccc5ccccc45)c(C(=O)O)[nH]c23)ccc1B(O)O` [7-(3-((3-Acetyl-4-boronophenoxy)methyl)-1,5-dimethyl-1H-pyrazol-4-yl)-3-(3-(naphthalen-1-yloxy)propyl)-1H-indole-2-carboxylic acid, 6], for which the IC50 is 4.7 nM and the inhibitory constant (Ki) came to 1.2 nM.

In turn, `Cc1c(-c2cccc3c(CCCOc4cccc5ccccc45)c(C(=O)O)[nH]c23)c(COc2ccc(B(O)O)c(C=O)c2)nn1C` [7-(3-((4-Borono-3-formylphenoxy)methyl)-1,5-dimethyl-1Hpyrazol-4-yl)-3-(3-(naphthalen-1-yloxy)propyl)-1H-indole-2-carboxylic acid, 5] showed an IC50 of 3.4 nM and a Ki of 0.9 nM.

`CC(=O)c1cccc(OCc2nn(C)c(C)c2-c2cccc3c(CCCOc4cccc5ccccc45)c(C(=O)O)[nH]c23)c1` [7-(3-((3-Acetylphenoxy)methyl)-1,5-dimethyl-1H-pyrazol-4-yl)-3-(3-(naphthalen-1-yloxy)propyl)-1H-indole-2-carboxylic acid, 8] gave an IC50 of 237 nM and a Ki of 64 nM.

Consider `Cc1c(-c2cccc3c(CCCOc4cccc5ccccc45)c(C(=O)O)n(C)c23)c(COc2ccc(B(O)O)c(C=O)c2)nn1C` [7-(3-((4-Borono-3-formylphenoxy)methyl)-1,5-dimethyl-1Hpyrazol-4-yl)-1-methyl-3-(3-(naphthalen-1-yloxy)propyl)-1H-indole-2-carboxylic acid, 11], for which the IC50 is 4.2 nM and the Ki amounted to 1.2 nM.

The compound `Cc1c(-c2cccc3c(CCCOc4cccc5ccccc45)c(C(=O)O)[nH]c23)c(COc2ccccc2)nn1C` [Mcl-1 inhibitor 10] came in with an IC50 of 383 nM and a Ki of 104 nM.

With `CCc1nn(C)c(CC)c1-c1cccc2c(CCCOc3cccc4ccccc34)c(C(=O)O)n(CCN3CCOCC3)c12` [Mcl-1 inhibitor 12], the concentration for half-maximal inhibition (IC50) is 5.96 nM and the Ki was determined as 1.6 nM.

In turn, `Cc1c(-c2cccc3c(CCCOc4cccc5ccccc45)c(C(=O)O)[nH]c23)c(COc2cccc(C=O)c2)nn1C` [7-(3-((3-formylphenoxy)methyl)-1,5-dimethyl-1H-pyrazol-4-yl)-3-(3-(naphthalen-1-yloxy)propyl)-1H-indole-2-carboxylic acid, 7] gave an IC50 of 59.5 nM and a Ki of 16 nM.

Source of the values: BindingDB's records for doi:10.1038/nchembio.2174 (Oncology Innovative Medicines Unit, 2016).
